Experiments:
[1] = test system: Crj:CD (SD) rats; assay: Action of increasing feed intake by 4-week oral administration (Test Example 1); format: in vivo, rat
Procedure: Action of Increasing Feed Intake by 4-Week Oral Administration
Compound 1 was suspended in a 0.5% aqueous methyl cellulose solution to a final concentration of 0.6 mg/mL for 6 mg/kg dose, 3 mg/mL for 30 mg/kg dose, 16 mg/mL for 160 mg/kg dose, or 80 mg/mL for 800 mg/kg dose, and the resulting solution was used.
Male and female Crj:CD (SD) rats (SPF) at the age of 5 weeks were purchased from Nippon Charles River Co., Ltd., and were then fed and conditioned for 9 days. During the term, their body weight change and conditions were observed, and animals determined as in healthy conditions were used at the test. At the start of the use, the body weights of the male animals were within a range of 187 to 209 g, while those of the female animals were within a range of 147 to 173 g. During both of the conditioning and feeding term and the test term, the animals were fed with a solid feed for mouse and rat (CRF-1 15 kGy, Oriental Yeast Industry, Co., Ltd.) and with water, ad libitum.
As to the number of the animals used, 15 each of male and female animals were used for each group. As a negative control group, a group administered a 0.5% aqueous methyl cellulose solution alone was prepared. Based on the body weight at the termination of the conditioning and feeding term, the animals were randomly assigned to individual groups, so that the body weights were uniformly distributed among the resulting individual groups.
Oral administration was selected as the administration route. The solvent or a test compound-containing solution was administered once daily in the morning for 4 weeks in a dose of 1 mL per 100 g of body weight.
The feed intake of the test animals was measured on days 7, 14, 21 and 28. The measured values were tested for homoscedasticity by the Bartlett's test. When the variance was homogeneous, one-way layout analysis of variance was performed; in the case that significance was observed, herein, the control group and the individual dosed groups were tested by the Dunnett's test. When the variance was not homogeneous, the Kruskal-Wallis's rank test was performed; in the case that significance was observed among the groups, the Dunnett's test was conducted.

[2] = Body weight change by 4-week oral administration (Test Example 2); format: in vivo, rat
Procedure: (§1) Action of Increasing Feed Intake and Body Weight by 4-Week Oral Administration
(§2) Compound 1 was suspended in a 0.5% aqueous methyl cellulose solution to a final concentration of 20 mg/mL for 200 mg/kg dose or 40 mg/mL for 400 mg/kg dose, and the resulting solution was used.
(§3) Male and female Crj:CD (SD) rats (SPF) at the age 5 of weeks were purchased from Nippon Charles River Co., Ltd., and were then fed and conditioned for 7 days. During the term, their body weight change and conditions were observed, and animals determined as in healthy conditions were used at the test. At the start of the use, the body weights of the male animals were within a range of 177.4 to 193.6 g, while those of the female animals were within a range of 141.1 to 160.3 g. During both of the conditioning and feeding term and the test term, the animals were fed with a solid feed for mouse and rat [FR-2, Funabashi Agricultural Farm Co., Ltd.] and with water ad libitum.
(§4) As to the number of the animals used, 5 each of male and female animals were used for each group. As a negative control group, a group administered a 0.5% aqueous methyl cellulose solution alone was prepared. Based on the body weight at the termination of the conditioning and feeding term, the animals were randomly assigned to individual groups, so that the body weights were uniformly distributed among the resulting individual groups.
(§5) Oral administration was selected as the administration route. The solvent or the test compound was administered once daily in the morning for 4 weeks in a dose of 1 mL per 100 g of body weight.
(§6) The body weights and feed intake of the test animals were measured on days 0, 7, 14, 21 and 28. The individual measured values were tested, based on the same standards as in the […].

[3] = test system: Crj:CD (SD) rats; assay: Feed intake change by 4-week oral administration (Test Example 2); format: in vivo, rat
Procedure: as §1, §2, §3, §4, §5, §6

[4] = test system: dd-strain male mice; assay: Acute toxicity test; format: in vivo, mouse; conditions: oral administration, mortality seven days after administration
From the text: Test compounds were orally administered to groups of dd-strain male mice weighing 20±1 g, each group consisting of three mice.

[5] = 4-week oral administration, male and female rats
[6] = female rats, 200 mg/kg po once daily, day 0
[7] = female rats, 200 mg/kg po once daily, day 7
[8] = female rats, 200 mg/kg po once daily, day 14
[9] = female rats, 200 mg/kg po once daily, day 21
[10] = female rats, 200 mg/kg po once daily, day 28
[11] = female rats, 400 mg/kg po once daily, day 0
[12] = female rats, 400 mg/kg po once daily, day 7
[13] = female rats, 400 mg/kg po once daily, day 14
[14] = female rats, 400 mg/kg po once daily, day 21
[15] = female rats, 400 mg/kg po once daily, day 28
[16] = male rats, 200 mg/kg po once daily, day 0
[17] = male rats, 200 mg/kg po once daily, day 7
[18] = male rats, 200 mg/kg po once daily, day 14
[19] = male rats, 200 mg/kg po once daily, day 21
[20] = male rats, 200 mg/kg po once daily, day 28
[21] = male rats, 400 mg/kg po once daily, day 0
[22] = male rats, 400 mg/kg po once daily, day 7
[23] = male rats, 400 mg/kg po once daily, day 14
[24] = male rats, 400 mg/kg po once daily, day 21
[25] = male rats, 400 mg/kg po once daily, day 28

CCn1c(=O)c2c(nc(/C=C/c3ccc(OC)c(OC)c3)n2C)n(CC)c1=O [Compound 1, (E)-8-(3,4-dimethoxystyryl)-1,3-diethyl-7-methylxanthine]
effect on feed intake (in words) [1, 5]: increased the feed intake both in the males and in the females
Feed intake (g ± SD) ([1]; female rats, 6 mg/kg po once daily, day 7): 15.93 ± 1.09 g
Feed intake (g ± SD) ([1]; female rats, 6 mg/kg po once daily, day 14): 18.03 ± 1.37 g
Feed intake (g ± SD) ([1]; female rats, 6 mg/kg po once daily, day 21): 18.76 ± 1.18 g
Feed intake (g ± SD) ([1]; female rats, 6 mg/kg po once daily, day 28): 18.80 ± 1.46 g
Feed intake (g ± SD) ([1]; female rats, 30 mg/kg po once daily, day 7): 17.24 ± 1.19 g
Feed intake (g ± SD) ([1]; female rats, 30 mg/kg po once daily, day 14): 19.38 ± 1.74 g
Feed intake (g ± SD) ([1]; female rats, 30 mg/kg po once daily, day 21): 19.93 ± 2.08 g
Feed intake (g ± SD) ([1]; female rats, 30 mg/kg po once daily, day 28): 20.50 ± 1.96 g
Feed intake (g ± SD) ([1]; female rats, 160 mg/kg po once daily, day 7): 17.73 ± 1.40 g
Feed intake (g ± SD) ([1]; female rats, 160 mg/kg po once daily, day 14): 19.56 ± 1.68 g
Feed intake (g ± SD) ([1]; female rats, 160 mg/kg po once daily, day 21): 20.56 ± 1.73 g
Feed intake (g ± SD) ([1]; female rats, 160 mg/kg po once daily, day 28): 20.87 ± 2.04 g
Feed intake (g ± SD) ([1]; female rats, 800 mg/kg po once daily, day 7): 17.30 ± 0.99 g
Feed intake (g ± SD) ([1]; female rats, 800 mg/kg po once daily, day 14): 19.19 ± 1.44 g
Feed intake (g ± SD) ([1]; female rats, 800 mg/kg po once daily, day 21): 20.43 ± 1.69 g
Feed intake (g ± SD) ([1]; female rats, 800 mg/kg po once daily, day 28): 21.13 ± 1.76 g
Feed intake (g ± SD) ([1]; male rats, 6 mg/kg po once daily, day 7): 21.45 ± 1.28 g
Feed intake (g ± SD) ([1]; male rats, 6 mg/kg po once daily, day 14): 23.97 ± 1.21 g
Feed intake (g ± SD) ([1]; male rats, 6 mg/kg po once daily, day 21): 24.96 ± 1.58 g
Feed intake (g ± SD) ([1]; male rats, 6 mg/kg po once daily, day 28): 25.23 ± 1.80 g
Feed intake (g ± SD) ([1]; male rats, 30 mg/kg po once daily, day 7): 23.54 ± 2.15 g
Feed intake (g ± SD) ([1]; male rats, 30 mg/kg po once daily, day 14): 26.12 ± 2.03 g
Feed intake (g ± SD) ([1]; male rats, 30 mg/kg po once daily, day 21): 27.03 ± 2.07 g
Feed intake (g ± SD) ([1]; male rats, 30 mg/kg po once daily, day 28): 27.37 ± 2.56 g
Feed intake (g ± SD) ([1]; male rats, 160 mg/kg po once daily, day 7): 23.94 ± 1.58 g
Feed intake (g ± SD) ([1]; male rats, 160 mg/kg po once daily, day 14): 26.20 ± 1.77 g
Feed intake (g ± SD) ([1]; male rats, 160 mg/kg po once daily, day 21): 27.31 ± 1.74 g
Feed intake (g ± SD) ([1]; male rats, 160 mg/kg po once daily, day 28): 27.81 ± 2.47 g
Feed intake (g ± SD) ([1]; male rats, 800 mg/kg po once daily, day 7): 22.84 ± 1.81 g
Feed intake (g ± SD) ([1]; male rats, 800 mg/kg po once daily, day 14): 25.40 ± 2.42 g
Feed intake (g ± SD) ([1]; male rats, 800 mg/kg po once daily, day 21): 26.67 ± 2.19 g
Feed intake (g ± SD) ([1]; male rats, 800 mg/kg po once daily, day 28): 27.03 ± 2.37 g
effect on body weight (in words) [2, 5]: increased the feed intake and body weight
Body weight (g ± SD) [2, 6]: 151.0 ± 5.7 g
Body weight (g ± SD) [2, 7]: 178.6 ± 7.6 g
Body weight (g ± SD) [2, 8]: 206.0 ± 7.1 g
Body weight (g ± SD) [2, 9]: 232.5 ± 13.4 g
Body weight (g ± SD) [2, 10]: 255.7 ± 17.3 g
Body weight (g ± SD) [2, 11]: 152.9 ± 4.5 g
Body weight (g ± SD) [2, 12]: 178.1 ± 3.3 g
Body weight (g ± SD) [2, 13]: 207.8 ± 11.5 g
Body weight (g ± SD) [2, 14]: 236.5 ± 16.3 g
Body weight (g ± SD) [2, 15]: 259.3 ± 14.3 g
Body weight (g ± SD) [2, 16]: 191.2 ± 2.4 g
Body weight (g ± SD) [2, 17]: 247.3 ± 4.8 g
Body weight (g ± SD) [2, 18]: 313.5 ± 12.1 g
Body weight (g ± SD) [2, 19]: 371.5 ± 23.9 g
Body weight (g ± SD) [2, 20]: 419.2 ± 28.0 g
Body weight (g ± SD) [2, 21]: 189.5 ± 4.4 g
Body weight (g ± SD) [2, 22]: 242.5 ± 10.7 g
Body weight (g ± SD) [2, 23]: 304.8 ± 15.7 g
Body weight (g ± SD) [2, 24]: 361.9 ± 23.8 g
Body weight (g ± SD) [2, 25]: 415.6 ± 29.2 g
effect on feed intake (in words) [3, 5]: increased the feed intake
Feed intake (g ± SD) [3, 6]: 13.4 ± 1.7 g
Feed intake (g ± SD) [3, 7]: 20.2 ± 1.7 g
Feed intake (g ± SD) [3, 8]: 21.8 ± 1.7 g
Feed intake (g ± SD) [3, 9]: 20.9 ± 2.6 g
Feed intake (g ± SD) [3, 10]: 23.8 ± 3.0 g
Feed intake (g ± SD) [3, 11]: 14.6 ± 1.7 g
Feed intake (g ± SD) [3, 12]: 19.5 ± 2.2 g
Feed intake (g ± SD) [3, 13]: 21.1 ± 2.9 g
Feed intake (g ± SD) [3, 14]: 22.0 ± 2.6 g
Feed intake (g ± SD) [3, 15]: 24.5 ± 2.5 g
Feed intake (g ± SD) [3, 16]: 20.1 ± 1.0 g
Feed intake (g ± SD) [3, 17]: 28.4 ± 1.5 g
Feed intake (g ± SD) [3, 18]: 29.9 ± 1.6 g
Feed intake (g ± SD) [3, 19]: 30.2 ± 3.5 g
Feed intake (g ± SD) [3, 20]: 31.0 ± 1.1 g
Feed intake (g ± SD) [3, 21]: 20.7 ± 1.2 g
Feed intake (g ± SD) [3, 22]: 27.9 ± 2.5 g
Feed intake (g ± SD) [3, 23]: 30.2 ± 3.8 g
Feed intake (g ± SD) [3, 24]: 30.3 ± 3.9 g
Feed intake (g ± SD) [3, 25]: 34.8 ± 4.4 g
minimum lethal dose (MLD) [4]: greater than 1000 mg/kg

CCn1c(=O)c2c(nc(/C=C/c3cc(OC)c4c(c3)OCO4)n2C)n(CC)c1=O [Compound 3, (E)-1,3-diethyl-8-(3-methoxy-4,5-methylenedioxystyryl)-7-methylxanthine]
melting point: 201.5 to 202.3 °C
